According to US6548508B2, “Use of PDE V inhibitors for improved fecundity in mammals” (Pfizer, Inc., priority 2000, dated 2003):

How the values were obtained:
CBA × DBA mice = assay: Embryo survival in CBA × DBA mice, i.p. dosing during gestation; type: in vivo; conditions: for % Embryo Survival: assessed day 12
Description: Female mice of the CBA strain (obtained from Charles River, UK) were crossed with male mice of the DBA strain (obtained from Charles River, UK) and treated i.p. with 3-ethyl-5-[5-(4-ethylpiperazin-1-ylsulphonyl)-2-n-propoxyphenyl]-2-(pyridin-2-yl)methyl-2,6-dihydro-7H-pyrazolo[4,3-d]pyrimidin-7-one at the rate of either 1 mg/kg or 3′mg/kg on days 1 to 8 of gestation. The mice were euthanised on day 12 of gestation and the numbers of viable and non-viable embryos were determined relative to corresponding control mice.
Female mice of the CBA strain (obtained from Charles River, UK) were crossed with male mice of the DBA strain (obtained from Charles River, UK) and treated i.p. with 3-ethyl-5-[5-(4-ethylpiperazin-1-ylsulphonyl)-2-n-propoxyphenyl]-2-(pyridin-2-yl)methyl-2,6-dihydro-7H-pyrazolo[4,3-d]pyrimidin-7-one at the rate of 1 mg/kg on days 1 to 4 or 4 to 8 of gestation. The mice were euthanised on day 12 of gestation and the numbers of viable and non-viable embryos were determined relative to corresponding control mice.

pregnant rats = assay: Birthweights of rat pups after s.c. dosing of pregnant rats throughout gestation; type: in vivo; conditions: for % increase (birthweights of rat pups): pregnant rats n=10; for embryonic/foetal growth and birthweight (in words, FIG. 1): s.c. daily 0.3, 1 and 5 mg/kg, gestation days 1-21, pregnant rats
Description: To evaluate the effects of cGMP PDE V inhibition on embryonic and foetal growth, 3-ethyl-5-[5-(4-ethylpiperazin-1-ylsulphonyl)-2-n-propoxyphenyl]-2-(pyridin-2-yl)methyl-2,6-dihydro-7H-pyrazolo[4,3-d]pyrimidin- 7-one was administered s.c. daily in an aqueous micelle formulation at the rate of 0.3, 1 and 5 mg/kg to pregnant rats. The results are illustrated in FIG. 1.
A comparative experiment using a similar protocol was carried out using (A) 3-ethyl-5-[5-(4-ethylpiperazin-1-ylsulphonyl)-2-n-propoxyphenyl]-2-(pyridin-2-yl)methyl-2,6-dihydro-7H-pyrazolo[4,3-d]pyrimidin-7-one and the Lilly-ICOS PDE V inhibitor (B) CILIAS/IC-351. The compounds were administered throughout gestation subcutaneously to pregnant rats (n=10) and the birthweights of their corresponding rat pups were measured.

Mini-pigs = assay: Model of uterine blood flow and mean arterial blood pressure in mini-pigs; type: in vivo; conditions: intravenous
From the text: A model of uterine blood flow was established to assess the effects of PDE V inhibition on uterine flow and mean arterial blood pressure (MAP). Mini-pigs weighing approximately 30 kg were modified surgically. As a means of quantifying real time uterine blood flow a Transoinc blood flow probe was placed around either the left or right uterine artery. Catheters were inserted into a external jugular vein and a carotid artery for blood sampling/administration of compound and measurement of mean arterial blood pressure (MAP) respectively. Test compound was administered intravenously either during oestrous or the luteal phase of the reproductive cycle and the effects of PDE V inhibition on uterine blood flow and MAP were measured. The Y-axis for the two left hand bars is uterine blood flow (ml/min.), and for the two right hand bars is MAP (mmHg).

Friesian cross heifers = assay: Intra-vaginal dosing of Friesian cross heifers: plasma progesterone and uterine horn histology; type: in vivo, cattle; conditions: intra-vaginally twice daily, 30 days, uterine horn cross-sections
Description: Twenty-seven (27) female Friesian cross heifers, approximately 24 months of age were allocated randomly to three treatment groups control, 50 mg and 250 mg of the PDE V inhibitor administered intra-vaginally twice daily. Oestrous was synchronised using two intramuscular injections of PGF2 alpha (Lutalyse™) administered 11 days apart. The PDE V inhibitor was administered intra-vaginally twice daily from day −3 of oestrus until day 6 of the following oestrus (30 days in total). Blood samples were collected daily, plasma was prepared as soon as possible and stored at −20 DEG C. and then analysed for progesterone. At the completion of the study (ie day 6 of the second oestrous period) the cattle were euthanised and the reproductive tract collected. A cross section of the left and right horns of each uterus was collected and stored in 10% Formalin and then analysed histologically.

[1] = system: patients undergoing in vitro fertilisation (IVF) with prior poor endometrial response; conditions: Hum. Reprod., 2000, 15(4), 806-809; cited from earlier work
[2] = 0.3 mg/kg s.c. throughout gestation
[3] = 1 mg/kg s.c. throughout gestation
[4] = 5 mg/kg s.c. throughout gestation

CCCOc1ccc(S(=O)(=O)N2CCN(CC)CC2)cc1-c1nc2c(CC)n(Cc3ccccn3)nc2c(=O)[nH]1 [A, 3-ethyl-5-[5-(4-ethylpiperazin-1-ylsulphonyl)-2-n-propoxyphenyl]-2-(pyridin-2-yl)methyl-2,6-dihydro-7H-pyrazolo[4,3-d]pyrimidin-7-one]
% Embryo Survival (CBA × DBA mice; 1 mg/kg i.p. daily, days 1-4 of gestation, control 54): 81% | % Embryo Survival (CBA × DBA mice; 1 mg/kg i.p. daily, days 1-8 of gestation, control 51): 90% | % Embryo Survival (CBA × DBA mice; 1 mg/kg i.p. daily, days 4-8 of gestation, control 54): 70% | % Embryo Survival (CBA × DBA mice; 3 mg/kg i.p. daily, days 1-8 of gestation, control 51): 84% | % increase (birthweights of rat pups) (pregnant rats; [2]): 2% | % increase (birthweights of rat pups) (pregnant rats; [3]): 6% | % increase (birthweights of rat pups) (pregnant rats; [4]): 10% | % increase (birthweights of rat pups) (pregnant rats; 10 mg/kg s.c. throughout gestation): 12% | comparison of effectiveness on birth weights of rat pups (pregnant rats; A versus B, s.c. throughout gestation): more effective than compound B | embryonic/foetal growth and birthweight (in words, FIG. 1) (pregnant rats; listed as 3-ethyl-5-(5-(4-ethylpiperazin-1-ylsulphonyl)-2-n-propoxyphenyl)-2-(pyridin-2-yl)): increases birthweights of rat puts | mean arterial blood pressure (MAP) (FIG. 2) (Mini-pigs): No significant effect on mean arterial blood pressure | uterine blood flow relative to control (FIG. 2) (Mini-pigs): improves significantly uterine blood relative to control animals | endometrial epithelial thickness relative to control (FIG. 5) (Friesian cross heifers): increases endometrial epithelial thickness relative to control animals

CCCc1nn(C)c2c(=O)[nH]c(-c3cc(S(=O)(=O)N4CCN(C)CC4)ccc3OCC)nc12 [sildenafil, 5-[2-ethoxy-5-(4-methyl-1-piperazinylsulphonyl)phenyl]-1-methyl-3-n-propyl-1,6-dihydro-7H-pyrazolo[4,3-d]pyrimidin-7-one]
uterine artery blood flow and endometrial development [1]: may be effective for improving uterine artery blood flow and endometrial development

CCCOc1ccc(S(=O)(=O)N2CCN(CC)CC2)cc1-c1nc2c(CC)n(Cc3ccccn3)nc2c(=O)[nH]1 [3-ethyl-5-[5-(4-ethylpiperazin-1-ylsulphonyl)-2-n-propoxyphenyl]-2-(pyridin-2-yl)methyl-2,6-dihydro-7H-pyrazolo[4,3-d]pyrimidin-7-one]
rate of embryo survival (in words) (CBA × DBA mice; days 1-4 or 4-8 of gestation): improved the rate of embryo survival in both cases | rate of embryo survival and maintenance of pregnancy (in words) (CBA × DBA mice; days 1 to 8 of gestation, CBA×DBA mice): improves significantly the rate of embryo survival and the maintenance of pregnancy | embryonic/foetal growth and birthweight (in words, FIG. 1) (pregnant rats): promotes embryonic and/or foetal growth and consequently increases birthweight

CN1CC(=O)N2[C@H](c3ccc4c(c3)OCO4)c3[nH]c4ccccc4c3C[C@@H]2C1=O [B, (6R, 12aR)-2,3,6,7,12,12a-hexahydro-2-methyl-6-(3,4-methylenedioxyphenyl)-pyrazino[2′,1′:6,1]pyrido[3,4-b]indole-1,4-dione, reference compound]
% increase (birthweights of rat pups) (pregnant rats; [2]): 0% | % increase (birthweights of rat pups) (pregnant rats; [3]): 1% | % increase (birthweights of rat pups) (pregnant rats; [4]): 5%
